According to patent US11440916B2, “Selective A2A receptor antagonist” (InxMed (Nanjing) Co., Ltd., priority 2018, dated 2022):
“Also recorded” adds a separate entry of the source. Read-outs that look alike come from different tables or passages of the source.

Tests used:
A2A receptor = A2A receptor (Homo sapiens, UniProt P29274); assay: biochemical
Method: The mixture in the Opti-plate was transferred to the [sequence]-96 GF/B filter plate, which was then washed 9 times with Washing Buffer (500 μl/well), and incubated at 55° C. for 10 min. […] A series of concentrations were established for each compound and the CPM values were plotted versus the concentrations. IC50 values were calculated from the curve obtained.

[1] = Oral bioavailability, AUC, half-life, plasma, brain and liver concentration in mice at 2 mg/kg; format: in vivo; details: for AUC(0-t) / half-life / bioavailability: plasma; for bioavailability: read-out: Absolute bioavailability (oral); for Plasma concentration 4 and 6 hours after oral administration: time point not stated
Method: HZ10126 and other test compounds were each administered to mice at a dose of 2 mg/kg, and the bioavailability, AUC, plasma concentration, level of brain penetration (i.e. brain concentration) and liver concentration after the oral administration were measured and shown in Table 1. The measurement methods are well known to a person skilled in the art.

B16-F10 cells = assay: Mouse melanoma lung metastasis model, oral HZ10126; format: in vivo, mice
Method: 4.1 Establishment of a Mouse Melanoma Model (6×10^4 Cells/Mouse)
5-week old C58BL/6N mice, half male and half female, were divided into 4 groups, with 10 mice per group. B16-F10 cells were digested and centrifuged, re-suspended in physiological saline and washed once. The cells were counted and adjusted to a cell density of 30×10^4 cells/ml in a volume of 12 ml. 200 μl of the cell suspension was injected into the tail vain of each mouse (Day 1), and the body weight of mice was recorded once every 3 days. On Day 18, the mice were all sacrificed, lungs were removed, and metastasis tumors were counted and weighed. Livers, kidneys and spleens were taken for HE staining to evaluate the toxicity of the drug. The lungs were subjected to immunohistochemistry and stained for CD11b, F4/80 and CD8.
Test drug: HZ10126. 2 mg HZ10126 was dissolved in 80 μl DMSO first, and the resultant solution, while being vortexed, was added dropwise to 10 ml 50% PEG-400 to prepare a 0.2 mg/ml solution.
For the test groups, the HZ10126 solution was intragastrically administered at a dose of 2 mg HZ10126/kg/day. For the control group, an equivalent volume of 50% PGE-400 was administered. From the day of injection of cells, the drug was administered once a day for 18 consecutive days.

[2] = reference [2]; cited from earlier work
[3] = cited from earlier work
[4] = 2 mg/kg oral, 1 h post administration
[5] = 2 mg/kg, 4 h after oral administration
[6] = 2 mg/kg, 6 h after oral administration

Compound	IC50 (A2A receptor) [nM]	AUC(0-t) ([1]; mouse, 2 mg/kg, oral) [µg·h/mL]	half-life ([1]; mouse, 2 mg/kg, oral) [h]	bioavailability ([1]; mouse, 2 mg/kg, oral) [%]	Plasma concentration 4 and 6 hours after oral administration ([1]; 2 mg/kg)	further results
Nc1nc2c(cnn2CCc2ccc(OCC(=O)O)cc2)c2nc(-c3ccco3)nn12 [HZ10136]	1.1	0.00742 ± 0.00566	< 0.5	0.73	0.00257 ± 0.0001 µg/mL	Liver concentration/Plasma concentration [1, 4]: 1 h post administration: 2.3; Brain penetration ([1]; 2 mg/kg, oral): No penetration
Nc1nc2c(cnn2CCc2ccc(CO)cc2)c2nc(-c3ccco3)nn12 [HZ10330]	–	–	–	0	Not detected from 1 h after oral administration	Absolute bioavailability (oral) ([1]; 2 mg/kg, oral): does not lead to detectable bioavailability
COCCOc1ccc(N2CCN(CCn3ncc4c3nc(N)n3nc(-c5ccco5)nc43)CC2)cc1 [Preladenant, reference compound]	2.5	0.285 ± 0.113	–	–	–	Plasma concentration after oral administration [1, 6]: 6 h: 6.20 ± 7.27 ng/ml; half-life [2]: 2.1 h
Nc1nc2c(cnn2CCc2ccccc2)c2nc(-c3ccco3)nn12 [SCH 58261]	–	–	–	~0	No significant meaningful concentration	half-life ([3]; after intravenous injection, reference [1]): *26.7 min; Oral bioavailability ([3]; after oral administration): barely any oral bioavailability; also recorded: barely has any bioavailability; Brain concentration ([3]; intraperitoneal injection): very low brain concentration; Plasma concentration ([3]; intraperitoneal injection): relatively high plasma concentration; Half-life in the blood ([3]; rats, after intravenous injection): 0.445 h

The next lines start with results.

IC50 (A2A receptor) [nM]	AUC(0-t) ([1]; mouse, 2 mg/kg, oral) [µg·h/mL]	half-life ([1]; mouse, 2 mg/kg, oral) [h]	bioavailability ([1]; mouse, 2 mg/kg, oral) [%]	Plasma concentration 4 and 6 hours after oral administration ([1]; 2 mg/kg)	Compound	further results
1.8	0.371 ± 0.0629	4 to 5	13.4	–	Nc1nc2c(cnn2CCc2ccc(C(=O)O)cc2)c2nc(-c3ccco3)nn12 [HZ10126]	Liver concentration/Plasma concentration [1, 4]: 7; Liver concentration/Plasma concentration ([1]; 2 mg/kg oral, 6 h post administration): 24; Plasma concentration after oral administration [1, 5]: 52.0 ± 7.03 ng/mL; Plasma concentration after oral administration [1, 6]: 28.9 ± 9.79 ng/mL; Brain penetration ([1]; 2 mg/kg, oral): no detectable brain concentration; also recorded: No penetration; Kp at 1 h ([1]; mouse, liver/plasma, 2 mg/kg oral, 1 h post administration): 7; Kp at 6 h ([1]; mouse, liver/plasma, 2 mg/kg oral, 6 h post administration): 24; Metastases on the lungs versus control group (B16-F10 cells; Day 18, 2 mg/kg/day intragastric, once a day for 18 days): obviously less than those in the control group; Inhibitory effect on tumor / tumor metastasis (B16-F10 cells; mice, oral 2 mg/kg/day): excellent effect of suppressing tumor metastasis; also recorded: excellent inhibitory effect
1.2	0.0939 ± 0.0408	–	–	0.0045 ± 0.00253 µg/mL	Nc1nc2c(cnn2CCN2CCN(c3ccc(C(=O)O)cc3)CC2)c2nc(-c3ccco3)nn12 [HZ10168]	–
–	0.233 ± 0.0735	3.03	–	–	CCOC(=O)c1ccc(CCn2ncc3c2nc(N)n2nc(-c4ccco4)nc32)cc1 [HZ10328]	Plasma concentration after oral administration [1, 5]: 4 h: 24.0 ± 8.02 ng/ml
